In US20100249408A1, “USE OF NOVEL COMPOUND HAVING AFFINITY FOR AMYLOID, AND PROCESS FOR PRODUCTION OF THE SAME” (NIHON MEDI-PHYSICS CO., LTD., priority 2007, published 2010):
Read-outs that look alike come from different tables or passages of the source.

Assays:
[1] = Transferability into brain and clearance (Example I-16, Comparative Example I-7); type: in vivo, male Wistar rats; details: rats, intravenous injection, two animals
Experimental: Using Compound 6, a time course change of radioactive accumulation in brain of male Wistar rats (7-week old) was measured.
Also, radioactivity (hereinafter referred to as B in this Example) of 0.05 mL of a 1000-fold diluted solution of the injected solution was measured in the same manner as above. Using these measurement results, radioactive accumulation per unit weight of brain (% ID/g) at the respective time points was calculated in accordance with the following formula (3).

[2] = target: intracerebral amyloid (aggregated Aβ1-40 injected into amygdaloid nucleus) (Homo sapiens, UniProt P05067); details: rat with Aβ1-40 amyloid suspension in one amygdaloid nucleus, tail vein, brain removed 60 minutes after injection
intracerebral amyloid (aggregated Aβ1-40 injected into amygdaloid nucleus), sequence (P05067 672-711): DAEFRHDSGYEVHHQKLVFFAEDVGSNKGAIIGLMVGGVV
Experimental: The following experiment was carried out in order to examine whether amyloid in brain can be imaged by the compound of the present invention.
The rats were examined 1 day after the injection of the amyloid suspension and the phosphate buffered physiological saline solution (pH 7.4).
(4) Brain was removed 60 minutes after the injection to prepare a brain slice of 10 μm in thickness with a microtome (type: CM3050S, manufactured by LEICA).

amylin amyloid = amylin amyloid (Homo sapiens, UniProt P10997); details: amylin amyloid 0.8 μg/mL, compound 0.2-20.2 pM, 22° C., 3 hours (FIG. 16)
amylin amyloid, sequence (P10997 34-70 limits assumed): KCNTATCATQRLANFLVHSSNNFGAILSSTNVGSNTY
From the text: (§1) Affinity of the present compounds with amyloid was examined by the following in vitro binding tests.

insulin amyloid = insulin amyloid (Homo sapiens, UniProt P01308); details: insulin amyloid 0.8 μg/mL, compound 0.2-20.2 pM, 22° C., 3 hours (FIG. 16)
insulin amyloid, sequence (P01308 25-54 limits assumed): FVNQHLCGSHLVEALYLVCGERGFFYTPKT
insulin amyloid, sequence (P01308 90-110 limits assumed): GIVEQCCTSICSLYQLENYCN
From the text: as §1

[3] = target: β2-m-amyloid (aggregated β2-microglobulin) (Homo sapiens, UniProt P61769); details: β2-m-amyloid 0.8 μg/mL, compound 0.2-20.2 pM, 22° C., 3 hours (FIG. 16)
β2-m-amyloid (aggregated β2-microglobulin), sequence (P61769 21-119): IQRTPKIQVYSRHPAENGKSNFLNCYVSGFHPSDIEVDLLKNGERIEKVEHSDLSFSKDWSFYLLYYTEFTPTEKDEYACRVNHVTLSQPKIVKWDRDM
From the text: as §1

[4] = SD rat; for Radioactive distribution per unit weight, Adrenal gland, Average / Radioactive distribution per unit weight, Blood, Average / Radioactive distribution per unit weight, Bone, Average / Radioactive distribution per unit weight, Brain, Average / Radioactive distribution per unit weight, Heart, Average / Radioactive distribution per unit weight, Kidney, Average / Radioactive distribution per unit weight, Large intestine, Average / Radioactive distribution per unit weight, Liver, Average / Radioactive distribution per unit weight, Lung, Average / Radioactive distribution per unit weight, Marrow, Average / Radioactive distribution per unit weight, Muscle, Average / Radioactive distribution per unit weight, Pancreas, Average / Radioactive distribution per unit weight, Small intestine, Average / Radioactive distribution per unit weight, Spleen, Average / Radioactive distribution per unit weight, Stomach, Average: tail vein
Experimental: A solution of Compound 6 in diethylether was diluted with a 10 mg/mL ascorbic acid-containing physiological saline solution and adjusted to 8-12 MBq/mL in radioactive concentration. 0.2 mL each of the prepared sample solution was administered under non-anesthesia into the tail vein of the above rat. The rats were sacrificed by bleeding from abdominal artery, and each organ shown in Table 11 was removed 5, 30, 60 and 180 minutes after the administration. […] Also, radioactivity of the whole body of the rat after removal of the organs (hereinafter referred to as rest of the whole body) was measured. Using these measurement results, radioactive distribution per unit weight of each organ (% ID/g) at the respective time points was calculated in accordance with the following formula (6).
Three animals were used for the experiment at the respective time points.
[formula] • R^T: Radioactivity of target organ (cpm) • R^S: Sum of radioactivity of all the organs (cpm) • R^R: Radioactivity of the rest of the whole body (cpm) • M^T: Mass of target organ (g)

For `Oc1ccc(-c2cn3cc([123I])ccc3n2)cc1` [Compound 6, [^123I]-2-(4′-hydroxyphenyl)-6-iodoimidazo[1,2-a]pyridine], the “Radioactive accumulation in brain per unit weight” value ([1]; after 2 min.) was 0.96 % ID/g, the “Radioactive accumulation in brain per unit weight” value ([1]; after 5 min.) was 0.69 % ID/g and the “Radioactive accumulation in brain per unit weight” value ([1]; after 30 min.) was 0.16 % ID/g. The “Radioactive accumulation in brain per unit weight” value ([1]; after 60 min.) was 0.04 % ID/g, the “Accumulation of radioactivity at intracerebral amyloid (autoradiogram)” value [2] was “accumulating on intracerebral amyloid” and the “Radioactive count on glass fiber filter versus group without addition of amyloid” value (amylin amyloid) was “radioactivity was all high compared to the group without addition of amyloid suspension”. For the same molecule, the “Radioactive count on glass fiber filter versus group without addition of amyloid” value (insulin amyloid) was “radioactivity was all high compared to the group without addition of amyloid suspension”, the “Radioactive count on glass fiber filter versus group without addition of amyloid” value [3] was “radioactivity was all high compared to the group without addition of amyloid suspension” and the “Ratio (% ID/g at 5 minutes after the administration)/(% ID/g at 180 minutes after the administration)” value ([4]; bone) was 4. The “Ratio (% ID/g at 5 minutes after the administration)/(% ID/g at 180 minutes after the administration)” value ([4]; brain) was 122, the “Ratio (% ID/g at 5 minutes after the administration)/(% ID/g at 180 minutes after the administration)” value ([4]; heart) was 13 and the “Ratio (% ID/g at 5 minutes after the administration)/(% ID/g at 180 minutes after the administration)” value ([4]; lung) was 7. For the same molecule, the “Ratio (% ID/g at 5 minutes after the administration)/(% ID/g at 180 minutes after the administration)” value ([4]; pancreas) was 14, the “Radioactive distribution per unit weight, Adrenal gland, Average” value ([4]; 5 min. after administration) was 4.648 % ID/g and the “Radioactive distribution per unit weight, Adrenal gland, Average” value ([4]; 30 min. after administration) was 0.642 % ID/g. For the same molecule, the “Radioactive distribution per unit weight, Adrenal gland, Average” value ([4]; 60 min. after administration) was 0.260 % ID/g, the “Radioactive distribution per unit weight, Adrenal gland, Average” value ([4]; 180 min. after administration) was 0.020 % ID/g and the “Radioactive distribution per unit weight, Blood, Average” value ([4]; 5 min. after administration) was 0.285 % ID/g. For the same molecule, the “Radioactive distribution per unit weight, Blood, Average” value ([4]; 30 min. after administration) was 0.174 % ID/g, the “Radioactive distribution per unit weight, Blood, Average” value ([4]; 60 min. after administration) was 0.122 % ID/g and the “Radioactive distribution per unit weight, Blood, Average” value ([4]; 180 min. after administration) was 0.109 % ID/g. The “Radioactive distribution per unit weight, Bone, Average” value ([4]; 5 min. after administration) was 0.222 % ID/g, the “Radioactive distribution per unit weight, Bone, Average” value ([4]; 30 min. after administration) was 0.088 % ID/g and the “Radioactive distribution per unit weight, Bone, Average” value ([4]; 60 min. after administration) was 0.058 % ID/g. For the same molecule, the “Radioactive distribution per unit weight, Bone, Average” value ([4]; 180 min. after administration) was 0.053 % ID/g, the “Radioactive distribution per unit weight, Brain, Average” value ([4]; 5 min. after administration) was 0.721 % ID/g and the “Radioactive distribution per unit weight, Brain, Average” value ([4]; 30 min. after administration) was 0.124 % ID/g. The “Radioactive distribution per unit weight, Brain, Average” value ([4]; 60 min. after administration) was 0.030 % ID/g, the “Radioactive distribution per unit weight, Brain, Average” value ([4]; 180 min. after administration) was 0.006 % ID/g and the “Radioactive distribution per unit weight, Heart, Average” value ([4]; 5 min. after administration) was 0.619 % ID/g. The “Radioactive distribution per unit weight, Heart, Average” value ([4]; 30 min. after administration) was 0.147 % ID/g, the “Radioactive distribution per unit weight, Heart, Average” value ([4]; 60 min. after administration) was 0.063 % ID/g and the “Radioactive distribution per unit weight, Heart, Average” value ([4]; 180 min. after administration) was 0.047 % ID/g. For the same molecule, the “Radioactive distribution per unit weight, Kidney, Average” value ([4]; 5 min. after administration) was 0.999 % ID/g, the “Radioactive distribution per unit weight, Kidney, Average” value ([4]; 30 min. after administration) was 0.540 % ID/g and the “Radioactive distribution per unit weight, Kidney, Average” value ([4]; 60 min. after administration) was 0.244 % ID/g. The “Radioactive distribution per unit weight, Kidney, Average” value ([4]; 180 min. after administration) was 0.108 % ID/g, the “Radioactive distribution per unit weight, Large intestine, Average” value ([4]; 5 min. after administration) was 0.116 % ID/g and the “Radioactive distribution per unit weight, Large intestine, Average” value ([4]; 30 min. after administration) was 0.070 % ID/g. For the same molecule, the “Radioactive distribution per unit weight, Large intestine, Average” value ([4]; 60 min. after administration) was 0.066 % ID/g, the “Radioactive distribution per unit weight, Large intestine, Average” value ([4]; 180 min. after administration) was 7.296 % ID/g and the “Radioactive distribution per unit weight, Liver, Average” value ([4]; 5 min. after administration) was 2.008 % ID/g. For the same molecule, the “Radioactive distribution per unit weight, Liver, Average” value ([4]; 30 min. after administration) was 0.509 % ID/g, the “Radioactive distribution per unit weight, Liver, Average” value ([4]; 60 min. after administration) was 0.181 % ID/g and the “Radioactive distribution per unit weight, Liver, Average” value ([4]; 180 min. after administration) was 0.083 % ID/g. For the same molecule, the “Radioactive distribution per unit weight, Lung, Average” value ([4]; 5 min. after administration) was 0.657 % ID/g, the “Radioactive distribution per unit weight, Lung, Average” value ([4]; 30 min. after administration) was 0.209 % ID/g and the “Radioactive distribution per unit weight, Lung, Average” value ([4]; 60 min. after administration) was 0.120 % ID/g. The “Radioactive distribution per unit weight, Lung, Average” value ([4]; 180 min. after administration) was 0.089 % ID/g, the “Radioactive distribution per unit weight, Marrow, Average” value ([4]; 5 min. after administration) was 0.713 % ID/g and the “Radioactive distribution per unit weight, Marrow, Average” value ([4]; 30 min. after administration) was 0.194 % ID/g. For the same molecule, the “Radioactive distribution per unit weight, Marrow, Average” value ([4]; 60 min. after administration) was 0.000 % ID/g, the “Radioactive distribution per unit weight, Marrow, Average” value ([4]; 180 min. after administration) was 0.030 % ID/g and the “Radioactive distribution per unit weight, Muscle, Average” value ([4]; 5 min. after administration) was 0.381 % ID/g. For the same molecule, the “Radioactive distribution per unit weight, Muscle, Average” value ([4]; 30 min. after administration) was 0.078 % ID/g, the “Radioactive distribution per unit weight, Muscle, Average” value ([4]; 60 min. after administration) was 0.034 % ID/g and the “Radioactive distribution per unit weight, Muscle, Average” value ([4]; 180 min. after administration) was 0.022 % ID/g. For the same molecule, the “Radioactive distribution per unit weight, Pancreas, Average” value ([4]; 5 min. after administration) was 0.846 % ID/g, the “Radioactive distribution per unit weight, Pancreas, Average” value ([4]; 30 min. after administration) was 0.207 % ID/g and the “Radioactive distribution per unit weight, Pancreas, Average” value ([4]; 60 min. after administration) was 0.084 % ID/g. The “Radioactive distribution per unit weight, Pancreas, Average” value ([4]; 180 min. after administration) was 0.060 % ID/g, the “Radioactive distribution per unit weight, Small intestine, Average” value ([4]; 5 min. after administration) was 1.078 % ID/g and the “Radioactive distribution per unit weight, Small intestine, Average” value ([4]; 30 min. after administration) was 6.335 % ID/g. The “Radioactive distribution per unit weight, Small intestine, Average” value ([4]; 60 min. after administration) was 8.207 % ID/g, the “Radioactive distribution per unit weight, Small intestine, Average” value ([4]; 180 min. after administration) was 1.408 % ID/g and the “Radioactive distribution per unit weight, Spleen, Average” value ([4]; 5 min. after administration) was 0.462 % ID/g. For the same molecule, the “Radioactive distribution per unit weight, Spleen, Average” value ([4]; 30 min. after administration) was 0.140 % ID/g, the “Radioactive distribution per unit weight, Spleen, Average” value ([4]; 60 min. after administration) was 0.075 % ID/g and the “Radioactive distribution per unit weight, Spleen, Average” value ([4]; 180 min. after administration) was 0.072 % ID/g. For the same molecule, the “Radioactive distribution per unit weight, Stomach, Average” value ([4]; 5 min. after administration) was 0.360 % ID/g, the “Radioactive distribution per unit weight, Stomach, Average” value ([4]; 30 min. after administration) was 1.025 % ID/g and the “Radioactive distribution per unit weight, Stomach, Average” value ([4]; 60 min. after administration) was 1.043 % ID/g. The “Radioactive distribution per unit weight, Stomach, Average” value ([4]; 180 min. after administration) was 1.081 % ID/g.
